According to patent publication US4287190A, “Complexes of bivalent copper” (priority 1979, dated 1981):

Experiments:
[1] = system: artificially induced inflammation in rats (sodium carrageenan); experiment: Carrageenan foot swelling after topical treatment (Example 5, FIG. 2); assay type: in vivo, Male Wistar rats; conditions: topical, 154, 231, 462 and 770 mg, about 6 hours before carrageenan
Experimental: Male Wistar rats (average weight 250 g) were anaesthetised with diethyl ether and an area of c. 20 sq.cm was shaven high on their backs. The rats were then separated into 7 groups. Group 1, the control rats were not treated. Group 2 rats were treated by the application of a mixture of alcohol and glycerol (4:1), the carrier used for the compound Cu[H Sal]2. C2 H5 OH. Group 3 rats were treated with a 7% w/v solution of salicylic acid in a mixture of alcohol and glycerol (4:1). Group 4, 5, 6 and 7 rats were treated with amounts of Cu[H Sal]2. C2 H5 OH composition prepared according to example 3 containing 154 mg, 231 mg, 462 mg, and 770 mg respectively, of Cu[H Sal]2. C2 H5 OH.
About 6 hours after the topical treatment of the rats, inflammation was induced in a foot of each rat in each of the groups by the injection of 0.1 ml of 1% saline solution of sodium carrageenan into a foot pad of each rat. The inflammation of the feet of the rats in each group was then monitored by the swelling of the feet with a micrometer screw-gauge.
The results are shown in FIG. 2 wherein the curves represent the increase in paw thickness of the rats with time after the injection of the inflammatory agent. The curves 1 to 7 represent the swelling of the paws of the rats of groups 1 to 7 respectively.

Carrageenan paw oedema = experiment: Carrageenan-induced paw oedema in rats, topically applied copper-salicylates; conditions: topical
Experimental: All materials applied to shaved dorsal skin
in vehicle (= DMSO--glycerol), 4:1 v/v, 5 ml/kg except as
*Vehicle = ethanolglycerol (4:1 v/v)

Zymosan paw oedema = experiment: Zymosan-induced paw oedema in rats, topically applied copper-salicylates; conditions: topical, DMSO-glycerol 4:1 v/v, 5 ml/kg
[2] = system: polyarthritis induced in rats with Mycobacterium tuberculosis in squalane; experiment: Polyarthritis induced with Mycobacterium tuberculosis in squalane; assay type: in vivo; conditions: Cu[H Sal]2. DMSO formulation
[3] = Wistar, 2 Hour, DMSO-glycerol 4:1 v/v, 5 ml/kg
[4] = Wistar, 4 Hour, DMSO-glycerol 4:1 v/v, 5 ml/kg
[5] = DA × Lewis, 2 Hour, DMSO-glycerol 4:1 v/v, 5 ml/kg
[6] = DA × Lewis, 4 Hour, DMSO-glycerol 4:1 v/v, 5 ml/kg

Row | Compound | anti-inflammatory effect (increase in paw thickness with time) [1] | % Inhibition of paw oedema induced with Carrageenan (Carrageenan paw oedema; Wistar, 2 Hour, ethanol-glycerol 4:1 v/v, 5 ml/kg) | % Inhibition of paw oedema induced with Carrageenan (Carrageenan paw oedema; Wistar, 2 Hour, ethanol-glycerol 4:1 v/v, 15 ml/kg) | % Inhibition of paw oedema induced with Carrageenan (Carrageenan paw oedema; Wistar, 4 Hour, ethanol-glycerol 4:1 v/v, 5 ml/kg) | % Inhibition of paw oedema induced with Carrageenan (Carrageenan paw oedema; Wistar, 4 Hour, ethanol-glycerol 4:1 v/v, 15 ml/kg) | % Inhibition of paw oedema induced with Zymosan (Zymosan paw oedema; DA × Lewis, 2 Hour) | % Inhibition of paw oedema induced with Zymosan (Zymosan paw oedema; DA × Lewis, 4 Hour) | % Inhibition of paw oedema induced with Zymosan (Zymosan paw oedema; Wistar, 1 Hour) | % Inhibition of paw oedema induced with Zymosan (Zymosan paw oedema; Wistar, 2 Hour) | % Inhibition of paw oedema induced with Carrageenan (Carrageenan paw oedema; [3]) | % Inhibition of paw oedema induced with Carrageenan (Carrageenan paw oedema; [4]) | % Inhibition of paw oedema induced with Carrageenan (Carrageenan paw oedema; [5]) | % Inhibition of paw oedema induced with Carrageenan (Carrageenan paw oedema; [6]) | effect on the progress of polyarthritis [2]
1 | copper salicylate ethanolate [Cu[H Sal]2. C2 H5 OH] | clearly shows the anti-inflammatory effect | 24% | 58% | 32% | 53% | – | – | – | – | – | – | – | – | –
2 | CC(=O)[O-].CC(=O)[O-].[Cu+2] [Cu(OAc)] | – | – | – | – | – | 14% | 04% | 12% | 12% | 04% | 11% | – | – | –
3 | O=C(O)c1ccccc1O [Salicylic acid (alone), Salicylic acid] | – | – | – | – | – | -08% | -05% | 22% | 16% | 14% | 18% | 44% | 32% | –
4 | CS(C)=O.O=C([O-])c1ccccc1O.O=C([O-])c1ccccc1O.[Cu+2] [Cu[H Sal]2 . DMSO, copper salicylate DMSO] | – | – | – | – | – | 36% | 22% | 43% | 21% | 46% | 53% | 47% | 39% | effective on the progress of polyarthritis
